Reference: patent publication US8937090B2, “Parakeratosis inhibitor, pore-shrinking agent and external composition for skin” (Shiseido Company, Ltd., priority 2005, dated 2015)

Tests used:
hairless mouse (HR-1) = test: Parakeratosis-inhibiting effect test (oleic acid applied to back of hairless mouse; visual rough skin evaluation and parakeratosis value); type: in vivo; settings: for parakeratosis-inhibiting effect: in words, summary of Table 1; for Visual evaluation (average of four animals): rough skin score, control = 2.0, no skin roughness = 0.0, 3 days application after 10 mass % oleic acid; for Parakeratosis value (average of four animals): scale 1.0 to 3.0, higher = parakeratosis advanced, control 2.0
Procedure: Aqueous solutions (containing 30 mass % of ethanol) of 3 mass % of a β-alanine derivative or salt thereof were prepared mainly as the evaluation sample. The pH was regulated by hydrochloric acid or sodium hydroxide so as to be 7.0 to 7.5. When sample solubility was low, the solution was prepared accordingly.
100 μL of 10 mass % oleic acid solution (solvent: ethanol) were applied to the back of a hairless mouse (HR-1; Hoshino Laboratory Animals). Then the sample solution (β-alanine derivative, and the like) was applied 100 μL at a time. This procedure was continued for three days. […] At the same time, the stratum corneum at the back of the hairless mouse was peeled off with tape, the nuclei were stained by hematoxylin, and the degree of parakeratosis was observed and evaluated by a parakeratosis value within a range of 1.0 to 3.0 (in 0.25 increments).

[1] = system: cheeks of healthy human males; test: Human pore-shrinking effect (replica of cheek pores, three-dimensional laser scanning microscope); type: in vivo; settings: for pore-shrinking effect: in words, summary of Table 2; for Replica assessment value (average of n = 5): twice a day for one month, pore size rating (1-13) after minus before application, control 0.3
Procedure: An experiment was conducted whereby a sample was applied twice a day for one month to the cheeks of healthy human males in groups of 5 men each. Aqueous solutions (containing 15 mass % of ethanol) of 3 mass % of the β-alanine derivative or a salt thereof were prepared mainly as the evaluation sample. The pH was regulated by hydrochloric acid or sodium hydroxide so as to be 7.0 to 7.5. When the sample solubility was low, the solution was prepared accordingly. The control was an aqueous 15% ethanol solution. The sample aqueous solution and the control aqueous solution were applied to one half of the face at a time.
A replica was collected before and after continuous application, and changes in the shape of the pores at the same site were observed using a three-dimensional laser scanning microscope. The size of the pores was visually evaluated in the 13 steps of 1 through 13 (with the pores becoming larger as the numbers became larger), the difference in the ratings before and after application (after application—before application) was calculated, and the efficacy of each sample was studied using this difference as the replica assessment value.

hairless mice (HR-1) = test: Inhibiting effect on rough skin induced by oleic acid application (transepidermal water loss); type: in vivo, mouse; set-up: ΔTEWL value: unit not given here; settings: for rough skin preventing/ameliorating effect (ΔTEWL value versus control aqueous solution): in words, summary of Table 3; for ΔTEWL value: average of four mice, 3 days after 10 mass % oleic acid, control 12.0, increase = rough skin worse
Procedure: In order to investigate the inhibiting effect of β-alanine derivatives and salts thereof on rough skin induced by oleic acid application, the transepidermal water loss (TEWL value) before and after application was measured, the difference was compared with the control (control aqueous solution), and the effect was determined. […] The TEWL was determined using the TM210 TEWA Meter (Courage+Khazaka Electronic GmBH).
100 μL of 10 mass % oleic acid (solvent: ethanol) was applied to the back of hairless mice (HR-1, four mice per group). Then a sample solution (β-alanine derivatives) was applied 100 μL at a time. This procedure was continued for three days. On the following day, the TEWL value of the back was determined and the values of the four animals were averaged.

panel of 20 women = test: Sensory irritation tests; type: in vivo, human; settings: for sensory irritation: in words, summary of Table 4; for Evaluation (sensory irritation, class of average rating): 1 mL to cheek, rated for ten minutes
Procedure: 1 mL of a control aqueous solution and the sample aqueous solution prepared in Example 1 were applied using a cotton swab to the left or right cheek, respectively, of each member of a panel of 20 women, and the irritating sensation was evaluated every 30 seconds for ten minutes beginning immediately after application, whereby a final evaluation was reported. The evaluation of the irritating sensation was made based on the following four levels of rating criteria, and the average rating was calculated, whereby the average was classified by the following criteria.
3: Continuation is not possible because of extremely strong irritation, such as tingling sensation, burning sensation, stinging sensation, itching, and the like.
2: Intolerable because of strong irritation, such as tingling sensation, burning sensation, stinging sensation, itching, and the like.
1: Tolerable, but with slight irritation such as tingling sensation, burning sensation, stinging sensation, itching, and the like.
0: Not particularly irritating.
(Evaluation Criteria) • A: average rating of less than 0.2 • B: average rating of from 0.2 to less than 1.0 • C: average rating of from 1.0 to less than 2.0 • D: average rating of 2.0 or greater

For `O=C(O)CCN1CCCCC1` [3-(1′-piperidine)-propionate, 3-(1′-piperidine)-propionic acid], the parakeratosis-inhibiting effect (hairless mouse (HR-1)) was “reduced the parakeratosis value”, the “Visual evaluation (average of four animals)” value (shortened to “Visual evaluation”) (hairless mouse (HR-1); sample 3 mass %) was 1.4 and the “Parakeratosis value (average of four animals)” value (“Parakeratosis value” for short) (hairless mouse (HR-1); sample 3 mass %) was 1.4. For the same molecule, the pore-shrinking effect [1] was “effect was seen”, the “Replica assessment value (average of n = 5)” value (from here on “Replica assessment value”) ([1]; sample 3 mass %) was −1.2 and the “rough skin preventing/ameliorating effect (ΔTEWL value versus control aqueous solution)” value (hairless mice (HR-1)) was “effect was seen”. For the same molecule, the ΔTEWL value (hairless mice (HR-1); sample 3 mass %) was 5.5, the sensory irritation (panel of 20 women) was “no problem of sensory irritation” and the “Evaluation (sensory irritation, class of average rating)” value (panel of 20 women; sample 3 mass %) was “A (average rating of less than 0.2)”.
With `N=C(N)NCCC(=O)O` [3-guanidinopropionic acid, reference compound] the parakeratosis-inhibiting effect (hairless mouse (HR-1)) was “effect was not seen”, the “Visual evaluation” value (hairless mouse (HR-1); sample 3 mass %) was 2.1 and the “Parakeratosis value” value (hairless mouse (HR-1); sample 3 mass %) was 2.1. The “rough skin preventing/ameliorating effect (ΔTEWL value versus control aqueous solution)” value (hairless mice (HR-1)) was “no effect was seen” and the ΔTEWL value (hairless mice (HR-1); sample 3 mass %) was 12.3.
For `NC(=O)NCCC(=O)O` [3-ureidopropionic acid, reference compound], the parakeratosis-inhibiting effect (hairless mouse (HR-1)) was “effect was not seen”, the “Visual evaluation” value (hairless mouse (HR-1); sample 3 mass %) was 2.0 and the “Parakeratosis value” value (hairless mouse (HR-1); sample 3 mass %) was 2.2. The “rough skin preventing/ameliorating effect (ΔTEWL value versus control aqueous solution)” value (hairless mice (HR-1)) was “no effect was seen” and the ΔTEWL value (hairless mice (HR-1); sample 3 mass %) was 11.9.
With `COc1ccccc1C(=O)NCCC(=O)O` [N-(2′-methoxybenzoyl)-β-alanine] the parakeratosis-inhibiting effect (hairless mouse (HR-1)) was “reduced the parakeratosis value”, the “Visual evaluation” value (hairless mouse (HR-1); sample 3 mass %) was 1.1 and the “Parakeratosis value” value (hairless mouse (HR-1); sample 3 mass %) was 1.1. The pore-shrinking effect [1] was “effect was seen”, the “Replica assessment value” value ([1]; sample 3 mass %) was −0.9 and the “rough skin preventing/ameliorating effect (ΔTEWL value versus control aqueous solution)” value (hairless mice (HR-1)) was “effect was seen”. For the same molecule, the ΔTEWL value (hairless mice (HR-1); sample 3 mass %) was 7.0, the sensory irritation (panel of 20 women) was “no problem of sensory irritation” and the “Evaluation (sensory irritation, class of average rating)” value (panel of 20 women; sample 3 mass %) was “A (average rating of less than 0.2)”.
In the case of `O=C(O)CCNc1ccccn1` [N-(2′-pyridyl)-β-alanine], the parakeratosis-inhibiting effect (hairless mouse (HR-1)) is reported as “reduced the parakeratosis value”, the “Visual evaluation” value (hairless mouse (HR-1); sample 3 mass %) is reported as 1.4 and the “Parakeratosis value” value (hairless mouse (HR-1); sample 3 mass %) is reported as 1.3. The pore-shrinking effect [1] was “effect was seen”, the “Replica assessment value” value ([1]; sample 3 mass %) was −0.8 and the “rough skin preventing/ameliorating effect (ΔTEWL value versus control aqueous solution)” value (hairless mice (HR-1)) was “effect was seen”. The ΔTEWL value (hairless mice (HR-1); sample 3 mass %) was 5.5, the sensory irritation (panel of 20 women) was “no problem of sensory irritation” and the “Evaluation (sensory irritation, class of average rating)” value (panel of 20 women; sample 3 mass %) was “A (average rating of less than 0.2)”.
`COc1cc(C(=O)NCCC(=O)O)cc(OC)c1OC` [N-(3′,4′,5′-trimethoxybenzoyl)-β-alanine] was tested, and the parakeratosis-inhibiting effect (hairless mouse (HR-1)) was “reduced the parakeratosis value”, the “Visual evaluation” value (hairless mouse (HR-1); sample 3 mass %) was 1.1 and the “Parakeratosis value” value (hairless mouse (HR-1); sample 3 mass %) was 1.1. The pore-shrinking effect [1] was “effect was seen”, the “Replica assessment value” value ([1]; sample 3 mass %) was −0.6 and the “rough skin preventing/ameliorating effect (ΔTEWL value versus control aqueous solution)” value (hairless mice (HR-1)) was “effect was seen”. For the same molecule, the ΔTEWL value (hairless mice (HR-1); sample 3 mass %) was 6.9, the sensory irritation (panel of 20 women) was “no problem of sensory irritation” and the “Evaluation (sensory irritation, class of average rating)” value (panel of 20 women; sample 3 mass %) was “A (average rating of less than 0.2)”.
With `COc1cccc(C(=O)NCCC(=O)O)c1` [N-(3′-methoxybenzoyl)-β-alanine] the parakeratosis-inhibiting effect (hairless mouse (HR-1)) was “reduced the parakeratosis value”, the “Visual evaluation” value (hairless mouse (HR-1); sample 3 mass %) was 1.2 and the “Parakeratosis value” value (hairless mouse (HR-1); sample 3 mass %) was 1.2. The pore-shrinking effect [1] was “effect was seen”, the “Replica assessment value” value ([1]; sample 3 mass %) was −1.0 and the “rough skin preventing/ameliorating effect (ΔTEWL value versus control aqueous solution)” value (hairless mice (HR-1)) was “effect was seen”. For the same molecule, the ΔTEWL value (hairless mice (HR-1); sample 3 mass %) was 6.9, the sensory irritation (panel of 20 women) was “no problem of sensory irritation” and the “Evaluation (sensory irritation, class of average rating)” value (panel of 20 women; sample 3 mass %) was “A (average rating of less than 0.2)”.
In the case of `COc1ccc(C(=O)NCCC(=O)O)cc1` [N-(4′-methoxybenzoyl)-β-alanine], the parakeratosis-inhibiting effect (hairless mouse (HR-1)) is reported as “reduced the parakeratosis value”, the “Visual evaluation” value (hairless mouse (HR-1); sample 1.5 mass %) is reported as 1.2 and the “Parakeratosis value” value (hairless mouse (HR-1); sample 1.5 mass %) is reported as 1.1. The pore-shrinking effect [1] was “effect was seen”, the “Replica assessment value” value ([1]; sample 1.0 mass %) was −1.2 and the “rough skin preventing/ameliorating effect (ΔTEWL value versus control aqueous solution)” value (hairless mice (HR-1)) was “effect was seen”. The ΔTEWL value (hairless mice (HR-1); sample 1.5 mass %) was 5.7, the sensory irritation (panel of 20 women) was “no problem of sensory irritation” and the “Evaluation (sensory irritation, class of average rating)” value (panel of 20 women; sample 1.5 mass %) was “A (average rating of less than 0.2)”.
For `CC(=O)NCCC(=O)O` [N-acetyl-β-alanine, reference compound], the parakeratosis-inhibiting effect (hairless mouse (HR-1)) was “effect was not seen”, the “Visual evaluation” value (hairless mouse (HR-1); sample 3 mass %) was 1.8 and the “Parakeratosis value” value (hairless mouse (HR-1); sample 3 mass %) was 1.7. For the same molecule, the “rough skin preventing/ameliorating effect (ΔTEWL value versus control aqueous solution)” value (hairless mice (HR-1)) was “no effect was seen” and the ΔTEWL value (hairless mice (HR-1); sample 3 mass %) was 12.1.
`O=C(O)CCNS(=O)(=O)c1ccccc1` [N-benzenesulfonyl-β-alanine] was tested, and the parakeratosis-inhibiting effect (hairless mouse (HR-1)) was “reduced the parakeratosis value”, the “Visual evaluation” value (hairless mouse (HR-1); sample 3 mass %) was 1.1 and the “Parakeratosis value” value (hairless mouse (HR-1); sample 3 mass %) was 1.2. The pore-shrinking effect [1] was “effect was seen”, the “Replica assessment value” value ([1]; sample 3 mass %) was −0.7 and the “rough skin preventing/ameliorating effect (ΔTEWL value versus control aqueous solution)” value (hairless mice (HR-1)) was “effect was seen”. For the same molecule, the ΔTEWL value (hairless mice (HR-1); sample 3 mass %) was 5.4, the sensory irritation (panel of 20 women) was “no problem of sensory irritation” and the “Evaluation (sensory irritation, class of average rating)” value (panel of 20 women; sample 3 mass %) was “A (average rating of less than 0.2)”.
In the case of `O=C(O)CCNC(=O)c1ccccc1` [N-benzoyl-β-alanine], the parakeratosis-inhibiting effect (hairless mouse (HR-1)) is reported as “reduced the parakeratosis value”, the “Visual evaluation” value (hairless mouse (HR-1); sample 3 mass %) is reported as 1.1 and the “Parakeratosis value” value (hairless mouse (HR-1); sample 3 mass %) is reported as 1.1. The pore-shrinking effect [1] was “effect was seen”, the “Replica assessment value” value ([1]; sample 1.0 mass %) was −1.5 and the “rough skin preventing/ameliorating effect (ΔTEWL value versus control aqueous solution)” value (hairless mice (HR-1)) was “effect was seen”. For the same molecule, the ΔTEWL value (hairless mice (HR-1); sample 3 mass %) was 4.0, the sensory irritation (panel of 20 women) was “no problem of sensory irritation” and the “Evaluation (sensory irritation, class of average rating)” value (panel of 20 women; sample 3 mass %) was “A (average rating of less than 0.2)”.
For `O=C(O)CCNCc1ccccc1` [N-benzyl-β-alanine], the parakeratosis-inhibiting effect (hairless mouse (HR-1)) was “reduced the parakeratosis value”, the “Visual evaluation” value (hairless mouse (HR-1); sample 3 mass %) was 1.2 and the “Parakeratosis value” value (hairless mouse (HR-1); sample 3 mass %) was 1.2. The pore-shrinking effect [1] was “effect was seen”, the “Replica assessment value” value ([1]; sample 3 mass %) was −0.8 and the “rough skin preventing/ameliorating effect (ΔTEWL value versus control aqueous solution)” value (hairless mice (HR-1)) was “effect was seen”. The ΔTEWL value (hairless mice (HR-1); sample 3 mass %) was 8.9, the sensory irritation (panel of 20 women) was “no problem of sensory irritation” and the “Evaluation (sensory irritation, class of average rating)” value (panel of 20 women; sample 3 mass %) was “A (average rating of less than 0.2)”.
`CN(CCC(=O)O)C1CCCCC1` [N-cyclohexyl-N-methyl-β-alanine] was tested, and the parakeratosis-inhibiting effect (hairless mouse (HR-1)) was “reduced the parakeratosis value”, the “Visual evaluation” value (hairless mouse (HR-1); sample 3 mass %) was 1.4 and the “Parakeratosis value” value (hairless mouse (HR-1); sample 3 mass %) was 1.4. The pore-shrinking effect [1] was “effect was seen”, the “Replica assessment value” value ([1]; sample 3 mass %) was −0.8 and the “rough skin preventing/ameliorating effect (ΔTEWL value versus control aqueous solution)” value (hairless mice (HR-1)) was “effect was seen”. For the same molecule, the ΔTEWL value (hairless mice (HR-1); sample 3 mass %) was 5.5, the sensory irritation (panel of 20 women) was “no problem of sensory irritation” and the “Evaluation (sensory irritation, class of average rating)” value (panel of 20 women; sample 3 mass %) was “A (average rating of less than 0.2)”.
`C[C@H](N)C(=O)O` [alanine, reference compound] was tested, and the sensory irritation (panel of 20 women) was “strong sensory irritation” and the “Evaluation (sensory irritation, class of average rating)” value (panel of 20 women; sample 3 mass %) was “D (average rating of 2.0 or greater)”.
